CCCSc1nc(N[C@@H]2C[C@H]2c2ccc(F)c(F)c2)c2nnn([C@@H]3C[C@H](OCCO)[C@@H](O)[C@H]3O)c2n1
solubility (mole fraction)
Settings | 273.15 K | 278.15 K | 283.15 K | 288.15 K | 293.15 K | 298.15 K | 303.15 K | 308.15 K | 313.15 K
in ethyl acetate | 0.00246 | 0.00306 | 0.00399 | 0.00496 | 0.00602 | 0.00717 | 0.00899 | 0.0112 | 0.0139
in isopropanol | 0.00074 | 0.00102 | 0.00138 | 0.00213 | 0.00304 | 0.00415 | 0.00571 | 0.00785 | 0.0112
in isopropyl acetate | 0.0011 | 0.00136 | 0.00171 | 0.00205 | 0.00243 | 0.00295 | 0.00355 | 0.0045 | 0.00545
in n-butanol | 0.00106 | 0.00155 | 0.0021 | 0.00278 | 0.00371 | 0.00476 | 0.00633 | 0.00826 | 0.0114
in n-propanol | 0.00212 | 0.00288 | 0.00387 | 0.00513 | 0.00683 | 0.00958 | 0.0128 | 0.0165 | 0.0222
in sec-butanol | 0.000855 | 0.00116 | 0.00181 | 0.00249 | 0.00359 | 0.00494 | 0.00693 | 0.00992 | 0.0137

— BigSolDB 2.1
